According to paper PMC4139342, “Pharmacokinetics-Pharmacodynamics Analysis of Bicyclic 4-Nitroimidazole Analogs in a Murine Model of Tuberculosis” (PLoS ONE, 2014):
Values after ≈ are worked out from the molar mass of the structure shown. Like-named read-outs stand apart in the source and are kept apart here.

Experiments:
[1] = test system: M. tuberculosis (Mtb) (H37Rv, ATCC 27294); experiment: microbe, parasite or virus in culture; assay type: cell-based; conditions: Mycobacterium tuberculosis
[2] = Cytotoxicity against THP1 macrophage cell lines; assay type: cell-based; conditions: human
[3] = female, CD-1, mouse, in vivo, po, 25 mg/kg
[4] = in vivo; conditions: female, CD-1, mouse, po, 25 mg/kg
[5] = in vivo; conditions: female, CD-1, mouse, iv, 5 mg/kg; for clearance: i.v. CL
[6] = in vivo; conditions: female, CD-1, mouse, po, 25 mg/kg; remark: listed apart in the source
[7] = physchem; conditions: pH 6.8, aqueous buffer, thermodynamic from solid
[8] = physchem
[9] = In vivo lung PK after oral dosing; conditions: female, CD-1, mouse, 25 mg/kg
[10] = In vivo plasma PK after intravenous dosing; conditions: female, CD-1, mouse, plasma, iv, 5 mg/kg, T1/2 (i.v), mice, i.v. dosing at 5 mg/kg
[11] = In vivo plasma PK after oral dosing in CM-2 formulation; conditions: female, CD-1, mouse, plasma, po, 25 mg/kg

CC[C@@H]1Oc2nc([N+](=O)[O-])cn2C[C@@H]1OCc1ccc(OC(F)(F)F)cc1 [NI-145]
MIC99 [1]: 0.06 µg/mL (≈ 0.155 µM) | CC50 [2]: > 10 µg/mL | PAMPA %FA: 99% | PAMPA Log Pe: –3.85 cm/sec | Lung AUC24 [3]: 34.6 µg·h/g | Lung Cmax [3]: 4.2 µg/g | AUC [4]: 16200 ng·h/mL | Cmax [4]: 1800 ng/mL | Tmax [4]: 2 h | bioavailability [4]: 68% | Vd [5]: 1.7 L/kg | clearance [5]: 17 mL/min/kg | Tmax [6]: 2 h | Kp ([6]; Lung to Plasma ratio AUC24): 2.1 | Kp ([6]; Lung to Plasma ratio Cmax): 2.3 | solubility [7]: < 2 µg/mL | logP [8]: 3.85 | half-life [9]: 4.1 h | half-life [10]: 2 h | half-life [11]: 4.2 h

CC[C@@H]1Oc2nc([N+](=O)[O-])cn2C[C@@H]1NCc1ccc(OC(F)(F)F)c(F)c1 [NI-176]
MIC99 [1]: 0.03 µg/mL (≈ 0.0742 µM) | CC50 [2]: > 10 µg/mL | PAMPA %FA: 99% | PAMPA Log Pe: –3.7 cm/sec | Lung AUC24 [3]: 30.3 µg·h/g | Lung Cmax [3]: 4.8 µg/g | AUC [4]: 13700 ng·h/mL | Cmax [4]: 2200 ng/mL | bioavailability [4]: 86% | Vd [5]: 1.8 L/kg | clearance [5]: 22.2 mL/min/kg | Kp ([6]; Lung to Plasma ratio AUC24): 2.2 | Kp ([6]; Lung to Plasma ratio Cmax): 2.2 | solubility [7]: 8 µg/mL (≈ 19.8 µM) | logP [8]: 3.5 | half-life [9]: 4.3 h | half-life [10]: 1 h | half-life [11]: 4.3 h

CC[C@@H]1Oc2nc([N+](=O)[O-])cn2C[C@@H]1NCc1ccc(OC(F)(F)F)cc1 [NI-269]
MIC99 [1]: 0.03 µg/mL (≈ 0.0777 µM) | CC50 [2]: > 10 µg/mL | PAMPA %FA: 99% | PAMPA Log Pe: –3.7 cm/sec | Lung AUC24 [3]: 27.5 µg·h/g | Lung Cmax [3]: 5.4 µg/g | AUC [4]: 16000 ng·h/mL | Cmax [4]: 2800 ng/mL | Tmax [4]: 0.3 h | bioavailability [4]: 88% | Vd [5]: 2.6 L/kg | clearance [5]: 19.7 mL/min/kg | Tmax [6]: 0.3 h | Kp ([6]; Lung to Plasma ratio AUC24): 1.7 | Kp ([6]; Lung to Plasma ratio Cmax): 1.9 | solubility [7]: 12 µg/mL (≈ 31.1 µM) | logP [8]: 3.15 | half-life [9]: 2.7 h | half-life [10]: 2.1 h | half-life [11]: 3.8 h

COc1ccc(C[C@H](N)C(=O)N[C@H]2[C@@H](O)[C@H](n3cnc4c(N(C)C)ncnc43)O[C@@H]2CO)cc1 [Puromycin, reference compound]
CC50 ([2]; THP1 macrophage cell lines, read-out: Cytotoxicity CC50): 1.4 µg/mL (≈ 2.97 µM)
